From patent publication US10759749B2, “Therapeutic agent for diabetes” (JCR Pharmaceuticals Co., Ltd., priority 2016, dated 2020)
Where two headings read alike, the source gives them in different places. Values belong to the compound of their own block, whether it stands above or below them.

Experiments:
MIN6-K8 cells [1] = experiment: Insulin secretion stimulation test using MIN6-K8 cells; format: cell-based; conditions: for insulin secretion from MIN6-K8 cells (relative to control): 1 μM to 100 μM test compound, 11.2 mM glucose, 30 minutes; for amount of insulin secretion from MIN6-K8 cells at 100 μM compared with 30 μM: concentration of 100 μM
Procedure: MIN6-K8 cells (cells similar to the MIN6-m9 cell line deposited as FERM P-18081) were cultured in Dulbecco's modified Eagle's medium (DMEM medium) supplemented with 10% FBS, 50 μM 2-mercaptoethanol, 100 mg/L streptomycin and 60.5 mg/L penicillin sulfate at 37° C. After washing the MIN 6-K8 cells twice with medium, the cells were washed twice with 133.4 mM NaCl, 4.7 mM KCl, 1.2 mM KH2PO4, 1.2 mM MgSO4, 2.5 mM CaCl2, 5.0 mM NaHCO3, 2.8 mM glucose, 0.1% BSA and 10 mM HEPES buffer (pH 7.4) for 30 minutes. Cells were then cultured for 30 minutes in the KRBH buffer containing the test compound and 11.2 mM glucose. After incubation, the concentration of insulin contained in the KRBH buffer solution was measured using an insulin assay kit (CIS Bio International Inc.). The concentration of insulin was obtained as a relative value when the concentration of insulin when the test compound was not added was taken as 1. Here, DSC108 and C8 were used as test compounds, and the abilities to promote insulin secretion of both drugs were compared within a concentration range of 1 μM to 100 μM. Measurement was carried out with n=3.
For the 1,1-diphenyl-4-cyclohexyl-semicarbazide derivatives numbered 2 to 7 shown in Table 1, an insulin secretion stimulation test using the above MIN6-K8 cells was performed. The concentration of the test compound was 100 μM, and the amount of secretion when the amount of insulin secreted when no test compound was added was taken as 1 was measured. Incidentally, the number 1 is 1,1-diphenyl-4-cyclohexyl-semicarbazide represented by the chemical formula (18). Numbers 2 to 7 are compounds in which one of hydrogen atoms on the cyclohexyl ring of 1,1-diphenyl-4-cyclohexyl-semicarbazide is substituted with a carboxyl group.

mouse pancreases = experiment: Insulin secretion stimulation test using mice (pancreas perfusion); format: in vivo; conditions: 10 μM, 2.8 mM glucose, perfused mouse pancreas
Procedure: Insulin secretion stimulation test using mouse was performed in accordance with the method described in Bonnevie-Nielsen V. Diabetes. 30. 424-9 (1981) and Miki T. Diabetes. 54. 1056-63 (2005). Male mice, 16 to 20 weeks old, fasted for 6 hours, were anesthetized by administering sodium pentobarbital at a dose of 80 mg/kg body weight. The anesthetized mouse pancreases were perfused with KRBH buffer containing 4.6% dextran and 0.25% BSA aerated at 95% O2/5% CO2.
Subsequently, mouse pancreases were perfused with KRBH buffer containing 2.8 mM glucose and 10 μM DSC 108, and the perfused solution was collected every minute, and the concentration of insulin contained in the perfusion solution was measured with an insulin assay kit (CIS Bio international Inc.) over time. IN parallel, as a control, mouse pancreases were perfused with a KRBH buffer solution containing 2.8 mM glucose, and the concentration of insulin contained in the perfusion solution was measured in the same manner.

MIN6-K8 cells [2] = experiment: Measurement of intracellular calcium ion concentration (Fura-2-AM); format: cell-based; conditions: 3 μM to 30 μM, 2.8 mM glucose
Procedure: In accordance with the method described in “Shimaoto K. Mol Pharmacol. 53, 195-201 (1998)”, measurement of intracellular calcium concentration was performed using fura-2-acetoxymethyl ester (Fura-2-AM, Dojindo Inc.) which is a calcium ion sensitive fluorescent reagent. MIN6-K8 cells were grown in Dulbecco's modified Eagle medium (DMEM medium) supplemented with 10% FBS, 50 μM 2-mercaptoethanol, 100 mg/L streptomycin and 60.5 mg/L penicillin sulfate in a humidified condition of 5% CO2, at 37° C.
MIN6-K8 cells were then left alone in KRBH buffer containing 5 μM Fura-2-AM and 2.8 mM glucose at 37° C. for 20 minutes. Then, KRBH buffer containing 3 μM, 10 μM or 30 μM of DSC108 was each added as a test compound and fluorescence intensity at 340 nm and 380 nm were measured using a dual wavelength fluorometer (Fluoroskan Ascent CF, Labsystem Inc.) over time for 20 minutes and the values of “fluorescence intensity at 340 nm/fluorescence intensity at 380 nm” were determined. […] Measurement was carried out with n=4.

human SUR1 (hSUR1) = biological target: T1, human SUR1 (hSUR1) (Homo sapiens, UniProt Q09428); experiment: [^3H] glibenclamide competition test; format: binding; conditions: 10 nM [^3H] glibenclamide, 30 minutes
T1 construct: expressed in transfected cells
T1 sequence (Q09428 whole entry): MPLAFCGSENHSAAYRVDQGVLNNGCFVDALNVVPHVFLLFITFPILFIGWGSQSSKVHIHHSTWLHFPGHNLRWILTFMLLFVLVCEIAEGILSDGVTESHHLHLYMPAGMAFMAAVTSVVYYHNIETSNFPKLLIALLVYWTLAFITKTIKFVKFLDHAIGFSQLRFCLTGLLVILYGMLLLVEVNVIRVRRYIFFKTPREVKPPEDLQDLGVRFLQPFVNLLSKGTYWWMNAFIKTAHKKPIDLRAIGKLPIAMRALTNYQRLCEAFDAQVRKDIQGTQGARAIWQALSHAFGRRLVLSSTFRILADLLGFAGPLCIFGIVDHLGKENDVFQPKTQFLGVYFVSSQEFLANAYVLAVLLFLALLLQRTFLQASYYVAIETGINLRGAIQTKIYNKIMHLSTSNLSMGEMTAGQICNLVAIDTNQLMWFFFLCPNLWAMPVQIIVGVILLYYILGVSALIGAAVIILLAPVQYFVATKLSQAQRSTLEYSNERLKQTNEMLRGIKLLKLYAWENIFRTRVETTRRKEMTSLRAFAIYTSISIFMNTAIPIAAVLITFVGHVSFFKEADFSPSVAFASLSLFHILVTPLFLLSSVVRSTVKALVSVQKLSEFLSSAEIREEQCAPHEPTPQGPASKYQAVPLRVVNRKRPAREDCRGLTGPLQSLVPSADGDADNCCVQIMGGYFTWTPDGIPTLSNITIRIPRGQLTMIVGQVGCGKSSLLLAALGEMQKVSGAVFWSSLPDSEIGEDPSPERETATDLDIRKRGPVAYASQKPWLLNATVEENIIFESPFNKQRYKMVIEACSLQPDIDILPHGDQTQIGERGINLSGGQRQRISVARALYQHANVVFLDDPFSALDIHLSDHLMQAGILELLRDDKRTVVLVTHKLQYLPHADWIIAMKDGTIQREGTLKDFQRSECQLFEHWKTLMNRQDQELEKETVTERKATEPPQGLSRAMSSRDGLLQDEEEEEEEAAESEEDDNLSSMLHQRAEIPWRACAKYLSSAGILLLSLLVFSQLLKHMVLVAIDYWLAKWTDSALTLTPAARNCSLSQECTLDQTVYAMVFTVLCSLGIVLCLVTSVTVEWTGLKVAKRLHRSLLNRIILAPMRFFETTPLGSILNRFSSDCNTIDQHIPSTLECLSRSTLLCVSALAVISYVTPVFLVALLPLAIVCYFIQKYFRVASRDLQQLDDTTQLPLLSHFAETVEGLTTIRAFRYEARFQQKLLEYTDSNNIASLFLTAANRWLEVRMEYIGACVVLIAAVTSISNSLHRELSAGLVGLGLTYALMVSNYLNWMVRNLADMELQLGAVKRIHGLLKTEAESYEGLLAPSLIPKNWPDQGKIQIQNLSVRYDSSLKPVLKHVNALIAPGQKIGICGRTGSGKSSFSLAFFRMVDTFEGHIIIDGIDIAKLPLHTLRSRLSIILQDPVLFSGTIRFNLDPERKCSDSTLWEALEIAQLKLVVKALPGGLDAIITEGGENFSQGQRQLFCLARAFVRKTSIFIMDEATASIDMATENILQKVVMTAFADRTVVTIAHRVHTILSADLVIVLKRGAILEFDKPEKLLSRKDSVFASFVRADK
Procedure: An expression vector incorporating a gene encoding human SUR1 (hSUR1) was introduced into MIN6-K8 cells by a conventional method to establish a cell line MIN6-K8, which expresses hSUR1 strongly. The MIN6-K8 cells expressing strongly hSUR1 were cultured in a buffer containing 10 nM [^3H] glibenclamide and DSC108-Na for 30 minutes. In this, the concentration of DSC108-Na in the buffer was 300 μM to 1 mM. The cells were vacuum-filtered and recovered on Whatmann GF/C filters (Whatmann International Inc.), and then the filters were washed three times with 4 mL of ice-cold buffer. After washing, radioactivities of the filters were measured with a liquid scintillation counter, and the amount of [^3H] glibenclamide bound to MIN6-K8 cells expressing strongly hSUR1 via hSUR1 was measured. Then, the value at the time of non-addition of DSC108-Na was taken as 100%, and the binding amount (%) of [^3H] glibenclamide to MIN6-K8 cells was determined as a relative value to this value.

pancreatic β cells = experiment: Electrophysiological test using pancreatic β cells (membrane potential, perforated patch clamp); format: cell-based, C57BL/6 mice; conditions: in the presence of 30 μM compound; −69±2 mV in its absence
Procedure: Islets were isolated from C57BL/6 mice by collagenase digestion method in accordance with the method described “in Shibasaki T. Proc Natl Acad Sci USA. 104, 19333-8 (2007)”. The pancreatic islet cells were dispersed and cultured in DMEM supplemented with 10% FBS, and then plated on a 3.5 cm dish sheeted prior to the experiment with a glass flake coated with collagen.
Membrane potential of pancreatic β cells was measured by a perforated patch clamp method (Gonoi T J J. Biol. Chem., 269: 16989-92 (1994)) in current clamp mode. As an extracellular solution, 5 mM HEPES buffer-NaOH (pH 7.4) containing 143 mM NaCl, 5.4 mM KCl, 1.8 mM CaCl2, 0.5 mM MgCl2, 0.33 mM NaHPO4 and 5.5 mM glucose was used. As a pipette solution, 11 mM HEPES-KOH buffer (pH 7.4) containing 107 mM KCl, 11 mM EGTA, 2 mM MgSO4, 1 mM CaCl2 and […] ATP-K2 was used. Under this condition, outward current induced by 30 μM DSC108 was measured by a pierced patch clamp assay.

[3] = biological target: T2, KATP channel (human SUR1 and human Kir6.2 reconstituted in COS-1 cells) (Homo sapiens, UniProt Q09428); experiment: Electrophysiological test using KATP channel expressing COS-1 cells; format: cell-based; conditions: 300 μM diazoxide; read-out: IC50 of inhibition of polarization of COS-1 cell membrane via KATP channel induced by diazoxide
T2 construct: expressed in transfected cells; host or cells: COS-1 cells
T2 sequence (Q09428 whole entry): as above
T2 sequence (Q14654 whole entry partner): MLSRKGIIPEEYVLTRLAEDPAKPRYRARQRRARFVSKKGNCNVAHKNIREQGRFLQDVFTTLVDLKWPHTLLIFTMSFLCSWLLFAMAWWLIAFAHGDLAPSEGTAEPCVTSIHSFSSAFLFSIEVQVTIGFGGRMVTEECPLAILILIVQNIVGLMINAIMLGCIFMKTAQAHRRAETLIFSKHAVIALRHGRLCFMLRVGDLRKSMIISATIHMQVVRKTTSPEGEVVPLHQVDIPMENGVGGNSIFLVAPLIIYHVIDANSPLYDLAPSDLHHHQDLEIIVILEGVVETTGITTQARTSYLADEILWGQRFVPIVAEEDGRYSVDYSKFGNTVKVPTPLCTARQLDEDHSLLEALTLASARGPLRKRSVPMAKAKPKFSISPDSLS
Procedure: Expression vectors incorporating the gene encoding human SUR1 (hSUR1) and expression vector incorporating the gene encoding human Kir6.2 (hKir6.2) were introduced into COS-1 cells together, and the KATP channel was reconstituted with COS-1 cells (Inagaki N. Science. 270, 1166-70 (1995)). The cells were cultured in DMEM medium (Sigma-Aldrich Inc.) supplemented with 10% FBS and plated on a 3.5 cm dish on which glass flakes coated with collagen had been spread prior to the experiment, and incubated at 37° C. for 24 to 72 hours.
The membrane potential of COS-1 cells reconstituted with KATP channels was determined by the method described in (Gonoi TJ Biol. Chem., 269: 16989-92 (1994)), in the current clamp mode with perforated patch clamp method. […] Inhibitory effect of DSC108 on the polarization of COS-1 cell membrane via KATP channel induced by 300 μM diazoxide (Sigma Chemical Inc.) under these conditions was measured.
At this time, outward current induced by 300 μM diazoxide (Sigma Chemical Inc.) was measured by […] patch clamp assay, and this value was set to 0 mV. The value of outward current when DSC108, glibenclamide or glicrazaide (Sigma Chemical Inc.) was added together with diazoxide was determined to determine the inhibitory effect (IC50) of these agents on the polarization of the cell membrane induced by diazoxide.

wild type mice = experiment: Measurement of hypoglycemic action using wild type mice (glucose loading); format: in vivo, C57BL/6JJc1 mice; conditions: oral 10 to 100 mg/kg body weight, 20 minutes before glucose loading 1.5 g/kg
Procedure: To male C57BL/6JJc1 mice (CLEA Japan Inc.) of 18 to 30 weeks old fasted for 16 hours, 10, 30 or 100 mg/kg body weight of DSC108-Na was orally administered 20 minutes before glucose loading (1.5 g glucose/kg body weight) (10 mg/kg body weight administration group, 30 mg/kg body weight administration group and 100 mg/kg body weight administration group, respectively). As a control, DSC108-Na non-administration group (vehicle administration group) was placed. Glucose concentration in the blood was measured over time over 120 minutes after the administration using Antsense III glucose analyzer (Horiba Inc.). Measurement was carried out using 4 mice in each group.

[4] = test system: type 2 diabetes model rats; experiment: Measurement of hypoglycemic action using type 2 diabetes model rats (glucose loading); format: in vivo; conditions: GK/Slc rats, oral 100 mg/kg body weight
Procedure: To male GK/Slc rats (Japan SLC Inc.) 18-30 weeks old fasted for 6 hours, DSC108-Na was orally administered at 100 mg/kg body weight 20 minutes before glucose loading (1.5 g glucose/kg body weight) (DSC108-Na administration group). As a control, DSC108-Na non-administration group (vehicle administration group) was placed. The glucose concentration in the blood was measured using Antsense III glucose analyzer (Horiba Inc.). In addition, blood insulin concentration was measured by an ELISA method using an insulin measurement kit (Morinaga Inc.). Not limited to this examination, all animal tests were conducted in accordance with the provisions of the Kobe University Animal Experiment Implementation Rules with the approval of the Animal Experimental Ethics Committee of Kobe University.

[5] = mouse, in vivo, po, 30 mg/kg
Procedure: (§1) Peripheral blood was collected over time from the tail vein after administration. The collected blood was centrifuged to obtain plasma. An extraction solution (chloroform:methanol:water=1:2:0.8) containing 20 μM methionine sulfone was added to the plasma, followed by stirring and centrifugation. After filtering the extracted solution fraction with a 5 kD filter (Millipore Inc.), the extract was lyophilized. The extract obtained by lyophilization was dissolved in pure water and subjected to mass spectrometry. Mass spectrometry was performed using a mass spectrometer (LCMS-8050, Shimazu Inc.) fitted with liquid chromatography (Nexera UHPLC, Shimazu Inc.). Separation by liquid chromatography was performed with a double gradient of 0.1% formic acid aqueous solution and 0.1% acetonitrile formic acid solution using Discovery HS F5 column (3 μm, 2.1 mm×150 mm, Shigma-Aldrich Inc.).

[6] = Measurement of blood concentration after oral administration
Procedure: as §1

IC50 [3]: 2300 nM
Structure (SMILES): O=C(O)[C@H]1CC[C@@H](NC(=S)NN(c2ccccc2)c2ccccc2)CC1 [DSC108]
insulin secretion promoting ability compared between the two test compounds (MIN6-K8 cells [1]; 1 μM to 100 μM): higher insulin secretion promoting ability as compared with C8
insulin secretion from MIN6-K8 cells (relative to control) (MIN6-K8 cells [1]): promoted insulin secretion from MIN6-K8 cells in a concentration-dependent manner
amount of insulin secretion from MIN6-K8 cells at 100 μM compared with 30 μM (MIN6-K8 cells [1]): decreased as compared with the concentration at 30 μM
time after initiation of perfusion at which insulin concentration in the perfusion liquid increased (mouse pancreases): 5 min
time after start of perfusion at which insulin concentration returned to baseline (mouse pancreases): 9 min
intracellular calcium ion concentration (fluorescence 340 nm/380 nm) (MIN6-K8 cells [2]): increased intracellular calcium ion concentration in a concentration-dependent manner
binding of [^3H] glibenclamide to hSUR1-strongly expressed MIN6-K8 cells (human SUR1 (hSUR1)): inhibited the binding of [^3H] glibenclamide to hSUR1-strongly expressed MIN6-K8 cells in a concentration-dependent manner
membrane potential of pancreatic β cells (pancreatic β cells): −54±4 mV

disappearance from the blood [5]: quickly disappeared from the blood
highest value in blood concentration [5]: 72.4 µM
time after administration of the highest blood concentration [5]: 30 min
Structure (SMILES): O=C(O)[C@H]1CC[C@@H](NC(=S)NN(c2ccccc2)c2ccccc2)CC1 [DSC108-Na]
hypoglycemic effect (blood glucose concentration) (wild type mice): dose-dependent hypoglycemic effect
duration of the effect of lowering the glucose concentration in the blood [4]: 120 min
blood levels of insulin ([4]; 20 minutes after administration): increase in blood levels of insulin was observed

Structure (SMILES): S=C(NC1CCCCC1)NN(c1ccccc1)c1ccccc1 [C8, 1,1-diphenyl-4-cyclohexyl-thiosemicarbazide]
insulin secretion from MIN6-K8 cells (relative to control) (MIN6-K8 cells [1]): promoted insulin secretion from MIN6-K8 cells in a concentration-dependent manner
amount of insulin secretion from MIN6-K8 cells at 100 μM compared with 30 μM (MIN6-K8 cells [1]): decreased as compared with the concentration at 30 μM

concentration at 120 min ([6]; male, C57BL/6JJc1, mouse, plasma, po, 30 mg/kg): 75 µM
time after administration of the highest blood concentration ([6]; mice, oral, 30 mg/kg body weight): 60 min
highest value in blood concentration ([6]; mice, oral, 30 mg/kg body weight, plasma): approximately 100 μM
Structure (SMILES): Cc1ccc(S(=O)(=O)NC(=O)NN2CC3CCCC3C2)cc1 (centres unmarked) [Glyclazide, gliclazide]
